Source: patent US11053204B2, “Pyrimidinyloxy benzene derivatives as herbicides” (FMC Corporation, priority 2015, dated 2021)

Key:
Format in all cases: in vivo
[1] = test system: barnyardgrass (Echinochloa crus-galli); experiment: Test C preemergence, plant response rating; conditions: Preemergence
[2] = test system: oat, wild (wild oat Avena fatua); experiment: Test C preemergence, plant response rating
[3] = test system: nightshade (eastern black nightshade, Solanum ptycanthum); experiment: Test C preemergence, plant response rating
[4] = test system: johnsongrass (Sorghum halepense); experiment: Test C preemergence, plant response rating
[5] = test system: windgrass (Apera spica-venti); experiment: Test C preemergence, plant response rating
[6] = test system: wild poinsettia (Euphorbia heterophylla); experiment: Test C preemergence, plant response rating
[7] = test system: galium (catchweed bedstraw, Galium aparine); experiment: Test C preemergence, plant response rating
[8] = test system: surinam grass (Brachiaria decumbens); experiment: Test C postemergence, plant response rating; conditions: for Plant response rating, Surinam Grass: scale 0 to 100; for Surinam Grass plant response rating: scale 0 to 100 (0 no effect, 100 complete control)
In short: (§1)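 Visual injury score, 0 = no effect, 100 = complete control, assigned against untreated controls after 13 to 15 d in the greenhouse. Compounds were applied in a surfactant-containing non-phytotoxic solvent mix, preemergence to seeded loam/sand or silt loam soil, or postemergence to 1- to 4-leaf plants (2 to 18 cm).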

[9] = test system: buckwheat, wild (wild buckwheat, Polygonum convolvulus); experiment: Test C postemergence, plant response rating; conditions: for Plant response rating, Buckwheat, Wild: scale 0 to 100; for Buckwheat, Wild plant response rating: scale 0 to 100 (0 no effect, 100 complete control)
In short: as §1

[10] = test system: Canada thistle (Cirsium arvense); experiment: Test C postemergence, plant response rating; conditions: for Plant response rating, Canada Thistle: scale 0 to 100; for Canada Thistle plant response rating: scale 0 to 100 (0 no effect, 100 complete control)
In short: as §1

[11] = test system: wild poinsettia (Euphorbia heterophylla); experiment: Test C postemergence, plant response rating; conditions: for Plant response rating, Poinsettia, Wild: scale 0 to 100; for Poinsettia, Wild plant response rating: scale 0 to 100 (0 no effect, 100 complete control)
In short: as §1

[12] = test system: field poppy (Papaver rhoeas); experiment: Test C postemergence, plant response rating; conditions: for Plant response rating, Field Poppy: scale 0 to 100; for Field Poppy plant response rating: scale 0 to 100 (0 no effect, 100 complete control)
In short: as §1

[13] = test system: field violet (Viola arvensis); experiment: Test C postemergence, plant response rating; conditions: for Plant response rating, Field Violet: scale 0 to 100; for Field Violet plant response rating: scale 0 to 100 (0 no effect, 100 complete control)
In short: as §1

[14] = test system: geranium, cutleaf (cutleaf geranium, Geranium dissectum); experiment: Test C postemergence, plant response rating; conditions: for Plant response rating, Geranium, Cutleaf: scale 0 to 100; for Geranium, Cutleaf plant response rating: scale 0 to 100 (0 no effect, 100 complete control)
In short: as §1

[15] = test system: speedwell (bird's-eye speedwell, Veronica persica); experiment: Test C postemergence, plant response rating; conditions: for Plant response rating, Speedwell: scale 0 to 100; for Speedwell plant response rating: scale 0 to 100 (0 no effect, 100 complete control)
In short: as §1

[16] = test system: windgrass (Apera spica-venti); experiment: Test C postemergence, plant response rating; conditions: for Plant response rating, Windgrass: scale 0 to 100; for Windgrass plant response rating: scale 0 to 100 (0 no effect, 100 complete control)
In short: as §1

[17] = test system: johnsongrass (Sorghum halepense); experiment: Test C postemergence, plant response rating; conditions: for Plant response rating, Johnsongrass: scale 0 to 100; for Johnsongrass plant response rating: scale 0 to 100 (0 no effect, 100 complete control)
In short: as §1

[18] = test system: pigweed, palmer (palmer pigweed, Amaranthus palmeri); experiment: Test C postemergence, plant response rating; conditions: for Plant response rating, Pigweed, Palmer: scale 0 to 100; for Pigweed, Palmer plant response rating: scale 0 to 100 (0 no effect, 100 complete control)
In short: as §1

[19] = test system: nightshade (eastern black nightshade, Solanum ptycanthum); experiment: Test C postemergence, plant response rating; conditions: for Plant response rating, Nightshade: scale 0 to 100; for Nightshade plant response rating: scale 0 to 100 (0 no effect, 100 complete control)
In short: as §1

CCCC(=O)c1c(Br)cccc1Oc1ncc(Cl)cn1 [Compound 75]
Plant response rating, Barnyardgrass ([1]; 62 g ai/ha, scale of 0 to 100): 80
Plant response rating, Barnyardgrass ([1]; 125 g ai/ha, scale of 0 to 100): 100
Plant response rating, Barnyardgrass ([1]; 16 g ai/ha, scale 0 to 100): 5
Plant response rating, Barnyardgrass ([1]; 31 g ai/ha, scale 0 to 100): 60
Plant response rating, Oat, Wild ([2]; 16 g ai/ha, scale 0 to 100): 0
Plant response rating, Oat, Wild ([2]; 31 g ai/ha, scale 0 to 100): 0
Plant response rating, Oat, Wild ([2]; 62 g ai/ha, scale 0 to 100): 0
Plant response rating, Oat, Wild ([2]; 125 g ai/ha, scale of 0 to 100): 5
Plant response rating, Nightshade ([3]; 16 g ai/ha, scale 0 to 100): 40
Plant response rating, Nightshade ([3]; 31 g ai/ha, scale 0 to 100): 75
Plant response rating, Nightshade ([3]; 62 g ai/ha, scale 0 to 100): 75
Plant response rating, Nightshade ([3]; 125 g ai/ha, scale of 0 to 100): 80
Plant response rating, Johnsongrass ([4]; 16 g ai/ha, scale 0 to 100): 0
Plant response rating, Johnsongrass ([4]; 31 g ai/ha, scale 0 to 100): 0
Plant response rating, Johnsongrass ([4]; 62 g ai/ha, scale 0 to 100): 30
Plant response rating, Johnsongrass ([4]; 125 g ai/ha, scale of 0 to 100): 70
Plant response rating, Windgrass ([5]; 16 g ai/ha, scale 0 to 100): 5
Plant response rating, Windgrass ([5]; 31 g ai/ha, scale 0 to 100): 45
Plant response rating, Windgrass ([5]; 62 g ai/ha, scale 0 to 100): 100
Plant response rating, Windgrass ([5]; 125 g ai/ha, scale of 0 to 100): 100
Plant response rating, Poinsettia, Wild ([6]; 16 g ai/ha, scale 0 to 100): 10
Plant response rating, Poinsettia, Wild ([6]; 31 g ai/ha, scale 0 to 100): 40
Plant response rating, Poinsettia, Wild ([6]; 62 g ai/ha, scale 0 to 100): 35
Plant response rating, Poinsettia, Wild ([6]; 125 g ai/ha, scale of 0 to 100): 35
Plant response rating, Galium ([7]; 16 g ai/ha, scale 0 to 100): 0
Plant response rating, Galium ([7]; 31 g ai/ha, scale 0 to 100): 0
Plant response rating, Galium ([7]; 62 g ai/ha, scale of 0 to 100): 5
Plant response rating, Galium ([7]; 125 g ai/ha, scale of 0 to 100): 0
Plant response rating, Surinam Grass ([8]; 16 g ai/ha): 10
Plant response rating, Surinam Grass ([8]; 31 g ai/ha): 15
Surinam Grass plant response rating ([8]; 62 g ai/ha): 20
Surinam Grass plant response rating ([8]; 125 g ai/ha): 20
Plant response rating, Buckwheat, Wild ([9]; 16 g ai/ha): 45
Plant response rating, Buckwheat, Wild ([9]; 31 g ai/ha): 60
Buckwheat, Wild plant response rating ([9]; 62 g ai/ha): 80
Buckwheat, Wild plant response rating ([9]; 125 g ai/ha): 85
Plant response rating, Canada Thistle ([10]; 16 g ai/ha): 70
Plant response rating, Canada Thistle ([10]; 31 g ai/ha): 75
Canada Thistle plant response rating ([10]; 62 g ai/ha): 75
Canada Thistle plant response rating ([10]; 125 g ai/ha): 100
Plant response rating, Poinsettia, Wild ([11]; 16 g ai/ha): 65
Plant response rating, Poinsettia, Wild ([11]; 31 g ai/ha): 70
Poinsettia, Wild plant response rating ([11]; 62 g ai/ha): 80
Poinsettia, Wild plant response rating ([11]; 125 g ai/ha): 80
Plant response rating, Field Poppy ([12]; 16 g ai/ha): 70
Plant response rating, Field Poppy ([12]; 31 g ai/ha): 80
Field Poppy plant response rating ([12]; 62 g ai/ha): 80
Field Poppy plant response rating ([12]; 125 g ai/ha): 100
Plant response rating, Field Violet ([13]; 16 g ai/ha): 80
Plant response rating, Field Violet ([13]; 31 g ai/ha): 98
Field Violet plant response rating ([13]; 62 g ai/ha): 98
Field Violet plant response rating ([13]; 125 g ai/ha): 100
Plant response rating, Geranium, Cutleaf ([14]; 16 g ai/ha): 30
Plant response rating, Geranium, Cutleaf ([14]; 31 g ai/ha): 40
Geranium, Cutleaf plant response rating ([14]; 62 g ai/ha): 35
Geranium, Cutleaf plant response rating ([14]; 125 g ai/ha): 65
Plant response rating, Speedwell ([15]; 16 g ai/ha): 90
Plant response rating, Speedwell ([15]; 31 g ai/ha): 95
Speedwell plant response rating ([15]; 62 g ai/ha): 100
Speedwell plant response rating ([15]; 125 g ai/ha): 100
Plant response rating, Windgrass ([16]; 16 g ai/ha): 0
Plant response rating, Windgrass ([16]; 31 g ai/ha): 5
Windgrass plant response rating ([16]; 62 g ai/ha): 10
Windgrass plant response rating ([16]; 125 g ai/ha): 5
Plant response rating, Johnsongrass ([17]; 16 g ai/ha): 5
Plant response rating, Johnsongrass ([17]; 31 g ai/ha): 10
Johnsongrass plant response rating ([17]; 62 g ai/ha): 10
Johnsongrass plant response rating ([17]; 125 g ai/ha): 70
Plant response rating, Pigweed, Palmer ([18]; 16 g ai/ha): 75
Plant response rating, Pigweed, Palmer ([18]; 31 g ai/ha): 90
Pigweed, Palmer plant response rating ([18]; 62 g ai/ha): 95
Pigweed, Palmer plant response rating ([18]; 125 g ai/ha): 85
Plant response rating, Nightshade ([19]; 16 g ai/ha): 75
Plant response rating, Nightshade ([19]; 31 g ai/ha): 80
Nightshade plant response rating ([19]; 62 g ai/ha): 85
Nightshade plant response rating ([19]; 125 g ai/ha): 98
